In publication PMC12570502, “Kinetic characterization of RNA synthesis catalyzed by the model hyperthermophilic archaeon Thermococcus kodakarensis RNA polymerase” (mSphere, 2025) one finds Kd data, which are given here for one compound.

The experiment has as its target T1, T. k. RNAP (Thermococcus kodakarensis RNA polymerase) (Thermococcus kodakarensis, UniProt Q5JE32+Q5JE33+Q5JE34).
T1 construct: gene rpo1N; assembled on synthetic RNA:DNA scaffold (EC+10); with DNA-directed RNA polymerase subunit Rpo3; DNA-directed RNA polymerase subunit Rpo4; DNA-directed RNA polymerase subunit Rpo5; DNA-directed RNA polymerase subunit Rpo6; DNA-directed RNA polymerase subunit Rpo7; DNA-directed RNA polymerase subunit Rpo10; DNA-directed RNA polymerase subunit Rpo11; DNA-directed RNA polymerase subunit Rpo12
Put plainly: chemical quench-flow single-nucleotide addition, global fit (MENOTR). The experiment is classed as biochemical. To be noted: 25 °C, pH 8.39, Mg2+, heparin trap; elongation complex EC+10 on RNA:DNA scaffold; kinetic-model Kd with k1 fixed at 1 × 10^8 M^-1 s^-1; active site. The text has this:
chemical quench-flow single-nucleotide addition, global fit (MENOTR) on T. k. RNAP (Thermococcus kodakarensis RNA polymerase)

In turn, `Nc1ncnc2c1ncn2[C@@H]1O[C@H](COP(=O)(O)OP(=O)(O)OP(=O)(O)O)[C@@H](O)[C@H]1O` [ATP] had an equilibrium dissociation constant (Kd) of 2.98 µM.

Usually Kd stands for a measure of binding affinity in units of concentration.
